Calls of active or inactive are those of the source. The rule behind the calls is not given here.

The target of the experiment is Crimean-Congo hemorrhagic fever virus L protein viral ovarian tumor (vOTU) protease domain. Description: CCHFV vOTU protease inhibitor potency, dose response, biochemical, fluorescence, Pep-AMC substrate (AID 720578). Conditions: recombinant CCHFV vOTU, Pep-AMC fluorescence cleavage.
Turning to `CC(=O)N(/N=C1\Sc2ccccc2C1=O)c1ccccc1C`, the IC50 result was “inactive”. Take `CCc1ccc(S(=O)(=O)/N=C2\C=C(Nc3cccc(C(=O)O)c3)C(=O)c3ccccc32)cc1`: the IC50 was 0.833 µM. With `S=C(Nc1ccc2nsnc2c1)N1CCCCCC1`, the IC50 entry was “inactive”.

As for `Cc1ccc(Cl)cc1NC1=C/C(=N\S(=O)(=O)c2cccs2)c2ccccc2C1=O`, the IC50 is 0.787 µM. The result for `O=C(O)CSc1cc(NS(=O)(=O)c2ccc(Br)cc2)c2ccccc2c1O` reads 4.45 µM; that for `COc1cc(Br)c(C(=O)c2nccc3cc(OC)c(OC)cc23)cc1OC`, 0.27 µM; that for `CN(C)c1ncc(C2=C(Cl)C(=O)C(N3CCCC3)=C(Cl)C2=O)s1`, “inactive”. For the molecule `O=C1C(Cl)=C(NCCCO)C(=O)c2ccccc21`, the IC50 entry was “inactive”.

On to `NC1=C(Br)C(=O)c2ncccc2C1=O`, for which the IC50 is 0.435 µM. Under `O=C1NC(c2ccc(-c3ccccc3[N+](=O)[O-])o2)C(C(=O)c2ccc(Cl)cc2)C(O)(C(F)(F)F)N1` (stereo not given) stands “inactive”. Under `O=C(O)c1cccc(NC2=C(n3nnc4ccccc43)C(=O)c3ccccc3C2=O)c1` stands 4.76 µM; under `Cc1cc(NC2=CC(=O)C(=O)c3ccccc32)no1`, 5.6 µM. The result for `C[n+]1c2ccccc2nc2ccc(NCCO)cc21` reads 5.96 µM; that for `Cc1oc2c(c1C(=O)N1CCOCC1)C(=O)c1ccccc1C2=O`, “inactive”; that for `CN(C)S(=O)(=O)c1cccc(NC(=S)Nc2cccc3cnccc23)c1`, “inactive”. For `Cc1ccc(NC2=CC(=O)C(=O)c3ccccc32)cc1`, the IC50 is 7.14 µM.

As to `O=C(c1ccccc1)c1coc2c1C(=O)c1ccccc1C2=O`, the IC50 was 6.61 µM. Consider `c1coc(-c2nnc(-c3ccco3)nn2)c1`, for which the IC50 is 9.33 µM. The result for `COc1ccc(-n2c3nc4ccccc4nc3c3c(=N)oc(C)nc32)cc1` reads “inactive”; that for `O=C(/C=C/c1ccc(O)cc1)c1ccc(NC2=C(N3CCCCC3)C(=O)c3ccccc3C2=O)cc1`, 3.35 µM.

Consider `CC(=O)[C@H]1[C@@H]2C(=O)N(c3cccc(Cl)c3)C(=O)[C@@H]2[C@H]2c3ccccc3C=CN21`, for which the IC50 result is “inactive”. Under `COc1ccc(Cc2nccc3cc(OC)c(OC)cc23)cc1OC` stands “inactive”; under `CCC(COC)Oc1cc(NCc2ccccc2)c2ncn(C(C)C)c2c1` (stereo not given), 5.43 µM. The result for `CNc1ccc2nc3ccccc3[n+](C)c2c1` reads “inactive”; that for `Oc1c(C=Nc2cccc3nsnc23)ccc2ccccc12`, “inactive”.

Turning to `COc1cc(NC(=O)COC(=O)c2ccc([N+](=O)[O-])s2)cc(OC)c1OC`, the IC50 was 6.6 µM. Under `Nc1ccc(N2CCCCC2)c2nonc12` stands “inactive”; under `CCn1nc(/C=C/c2ccccc2)nc2c(=O)n(C)c(=O)nc1-2`, 0.276 µM. `CCOC(=O)/C=C(\C)Sc1cc(O)c2ccccc2c1O`: the 50% inhibitory concentration (IC50) is 1.57 µM. Take `CC(C)(C)c1cc[n+](C2=C([O-])c3ccccc3C(=O)/C2=N\S(=O)(=O)c2cccs2)cc1`: the IC50 was 6.78 µM. Consider `COc1cc2c(cc1O)[C@@H]1Cc3ccc(OC)c(O)c3CN1CC2`, for which the IC50 is 7.49 µM.

On to `CCOC(=O)N=Nc1c2ccccc2c2nc3no[nH]c3nc12`, for which the IC50 is 2.35 µM. Under `Cc1cnc(C=NNC(N)=S)c2cccc(N)c12` stands 2.95 µM. Under `O=C1Cc2ccccc2C(=O)N1Cc1ccccc1` stands 1.28 µM.

As to `C[n+]1cccc2cccc([O-])c21`, the IC50 was 6.41 µM. With `O=C(NC(=S)Nc1ccccc1N1CCCC1)c1ccc(F)cc1`, the IC50 result is “inactive”.

Regarding `Cc1ccccc1NC1=C/C(=N\S(=O)(=O)c2ccc(C(=O)O)cc2)c2ccccc2C1=O`, the IC50 is 0.257 µM. Under `CN(C)CCCNc1cc(O)c2ncccc2c1` stands 5.13 µM; under `O=[N+]([O-])c1c(Nc2ccccn2)cc(Cl)c2nonc12`, “inactive”. The result for `CC1OC2CC(=O)OC2C2=C1C(=O)c1c(O)cccc1C2=O` (stereo not given) reads 3.45 µM; that for `CCC(C)n1c(NC(=O)c2ccccc2)c(C#N)c2nc3ccccc3nc21` (stereo not given), 8.97 µM.

Turning to `COc1cc(NCCCC(C)N)c2ncccc2c1` (stereo not given), the IC50 is 2.52 µM. As to `COc1ccccc1NC(=O)COC(=O)c1ccc([N+](=O)[O-])s1`, the IC50 was 9.94 µM. Under `O=C(COC(=O)c1ccc([N+](=O)[O-])s1)NCc1ccc(F)cc1` stands 8.08 µM. As to `O=C(O)c1ccc(S(=O)(=O)/N=C2\C=C(Nc3ccccc3F)C(=O)c3ccccc32)cc1`, the IC50 was 0.397 µM. The result for `CCCCCCCCCCCCCCCCn1cc[n+](C)c1` reads “inactive”; that for `CC(=O)N(C1=C(Cl)C(=O)c2ccccc2C1=O)C1CCCCC1`, 3.54 µM.

Regarding `O=C(NC1=CC(=O)c2ccccc2C1=O)c1ccccc1`, the IC50 was 3.85 µM. For `O=C(NC1=C(NC2CCS(=O)(=O)C2)C(=O)c2ccccc2C1=O)c1ccccc1` (stereo not given), the IC50 was 3.93 µM. The result for `Nc1scc2c(C(=O)N/N=C/c3ccc(Cl)cc3)nn(-c3ccccc3)c(=O)c12` reads “inactive”; that for `O=S(=O)(Nc1cc(Sc2ncn[nH]2)c(O)c2ccccc12)c1ccccc1`, 0.708 µM; that for `Cc1ccc(NC2=C(N3CCCCC3)C(=O)c3ccccc3C2=O)cc1`, 4.46 µM. As to `COc1cc(NCCCCCCN)c2ncccc2c1OC`, the IC50 was 3.65 µM. Under `Cc1ccc(NC2=C(N3CCOCC3)C(=O)c3ccccc3C2=O)cc1` stands 4.31 µM. Under `CN(C1=C(NC(=O)c2ccccc2)C(=O)c2ccccc2C1=O)C1CCS(=O)(=O)C1` (stereo not given) stands 2.43 µM; under `CC(=O)[C@@H]1[C@@H]2C(=O)N(c3ccc(F)c(Cl)c3)C(=O)[C@@H]2C2c3ccccc3C=CN21` (stereo not given in full), “inactive”; under `COC1=C(Br)C(=O)c2nc(C)ccc2C1=O`, 9.43 µM.

As for `O=S(=O)(Nc1c(S(=O)(=O)c2ccccc2)c2nc3ccccc3nc2n1C1CCCCC1)c1ccccc1`, the IC50 is > 115 µM (inactive). For `CN(C)c1ccc2nc3ccc(=O)cc-3sc2c1`, the IC50 result is “inactive”. As for `C=CCN1C(=O)/C(=C/c2ccc(OC(C)=O)c(OCC)c2[N+](=O)[O-])SC1=S`, the IC50 was 7.63 µM. Under `O=C1C=C(N2CCCCC2)c2ccccc2C1=O` stands 7.75 µM; under `C[n+]1c(-c2ccccc2)cc2c(=Cc3ccc([N+](=O)[O-])cc3)c3ccccc3n21`, “inactive”; under `CCOC(=O)c1c(C)[nH]c2c1-c1ccccc1C(=O)C2=O`, 0.323 µM. Under `Cc1cnc(C2OCCO2)c2cccc(N)c12` stands 2.56 µM.

Turning to `O=S(=O)(c1ccc2nc(-c3ccco3)c(-c3ccco3)nc2c1)N1CCOCC1`, the IC50 result was “inactive”.

Take `Cc1cc(C)c(S(=O)(=O)/N=C2\C=C(Nc3ccc(C(=O)O)cc3)C(=O)c3ccccc32)c(C)c1`: the IC50 was 1.72 µM. The result for `CCOC(=O)c1cc2c(=Cc3ccc(N(C)C)cc3)c3ccccc3n2[n+]1C` reads 7.38 µM.

On to `Cn1c2ccccc2c2cc(/C=N/NC(=O)c3cc(O)ccc3O)ccc21`, for which the IC50 is 9.12 µM. As for `Cc1coc2c(O)cc3c(c12)OC1(N2CCCCC2)C(=O)NCCCC31` (stereo not given), the IC50 entry was “inactive”. Under `COc1ccc2noc3c2c1C(=O)c1ccccc1-3` stands 3.08 µM.

For the origin of these results see PubChem BioAssay AID720578 (The Scripps Research Institute Molecular Screening Center, 2013).
